Our source for the IC50 values is patent publication US9856220B2 (AbbVie Deutschland GmbH & Co. KG, priority 2011, dated 2018).

pIC50: −log10 of the molar value. Bounds are passed on as bounds.

PDE10A, sequence (Q9Y233 whole entry, species assumed): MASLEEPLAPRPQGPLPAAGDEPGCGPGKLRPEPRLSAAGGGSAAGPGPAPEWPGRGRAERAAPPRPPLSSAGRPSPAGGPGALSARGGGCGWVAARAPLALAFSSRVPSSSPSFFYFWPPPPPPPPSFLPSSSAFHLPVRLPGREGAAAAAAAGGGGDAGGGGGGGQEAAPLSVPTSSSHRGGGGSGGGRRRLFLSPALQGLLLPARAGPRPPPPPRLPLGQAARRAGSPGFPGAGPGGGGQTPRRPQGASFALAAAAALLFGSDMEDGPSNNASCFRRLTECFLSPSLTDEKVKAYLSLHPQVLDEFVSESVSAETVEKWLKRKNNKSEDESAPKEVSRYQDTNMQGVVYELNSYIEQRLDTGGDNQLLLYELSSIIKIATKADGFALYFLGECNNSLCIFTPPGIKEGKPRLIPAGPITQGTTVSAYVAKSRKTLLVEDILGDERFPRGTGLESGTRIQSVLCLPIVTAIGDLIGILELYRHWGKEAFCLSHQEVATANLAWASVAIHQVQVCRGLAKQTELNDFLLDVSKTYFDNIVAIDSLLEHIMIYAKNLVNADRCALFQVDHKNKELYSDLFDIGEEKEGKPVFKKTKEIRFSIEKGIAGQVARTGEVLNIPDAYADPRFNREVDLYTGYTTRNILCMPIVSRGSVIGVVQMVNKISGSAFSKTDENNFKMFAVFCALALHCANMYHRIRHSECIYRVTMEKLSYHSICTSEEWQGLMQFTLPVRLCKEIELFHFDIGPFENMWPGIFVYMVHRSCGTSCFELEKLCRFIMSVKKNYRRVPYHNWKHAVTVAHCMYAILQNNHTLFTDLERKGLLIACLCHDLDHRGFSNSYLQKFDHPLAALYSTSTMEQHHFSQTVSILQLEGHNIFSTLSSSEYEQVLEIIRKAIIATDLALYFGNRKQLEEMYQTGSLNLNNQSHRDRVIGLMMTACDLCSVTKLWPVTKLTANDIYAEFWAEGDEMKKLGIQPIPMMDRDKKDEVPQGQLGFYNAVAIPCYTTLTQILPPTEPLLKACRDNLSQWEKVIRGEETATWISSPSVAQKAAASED

This assay addresses PDE10A (Homo sapiens (Human), UniProt Q9Y233). Put plainly: Measurement of PDE activity (recombinant PDE, cAMP HTRF). It is filed as biochemical. To be noted: 20 nM cyclic nucleotide substrate, 60 minutes at 29 C. As for the experimental part:
a) Measurement of PDE Activity
The recombinant PDE proteins are used in in vitro enzymatic reaction for measurement of PDE activity. These recombinant proteins, including PDE10A (human, rat and mouse PDE10) and isoforms of PDEs 1, 3, 4, and 5, were purchased from commercial vendor BPS Bioscience. The enzymatic activity of PDEs was determined by cAMP measurement kit from CisBio (IBA) using HTRF technology.
The PDE enzymatic reaction was carried out in assay buffer (20 mM Tris-HCl pH7.5, 10 mM MgCl2, 0.1% bovine serum albumin) containing enzyme and substrate. […] The substrate cyclic nucleotide (cAMP or cGMP) concentration used in the assay was 20 nM for PDE10, and 100 nM for other PDEs. The inhibitory effect of compound was determined by incubating various concentration of inhibitor in the enzymatic assay. […] Next, the compound at varying concentration was mixed with PDE enzyme. The reaction was initiated by addition of cyclic nucleotide substrate, and incubated for 60 minutes at 29 C. The reaction was stopped by addition of lysis buffer from assay kit. The cAMP-d2 and anti-cAMP cryptate in the lysis buffer detected the level of cAMP left from the PDE hydrolysis reaction. […] Thus, IC50 value of inhibitor can be obtained by plotting inhibitor concentration against PDE activity at that concentration.
Background: In TR-FRET formats the signal depends on donor and acceptor labels being close together.
Take `CCC(CC)n1cc(C(=O)NCc2cc(F)cc(F)c2)c2cc(OC)c(OC)cc2c1=O` [Example 188, 2-(1-Ethyl-propyl)-6,7-dimethoxy-1-oxo-1,2-dihydro-isoquinoline-4-carboxylic acid 3,5-difluoro-benzylamide]: the pIC50 was 6.70 to 7.00.
As for `CCC(CC)n1cc(C(=O)NC2CCc3ccccc32)c2cc(OC)c(OC)cc2c1=O` (stereo not drawn) [Example 135, 2-(1-Ethyl-propyl)-6,7-dimethoxy-1-oxo-1,2-dihydro-isoquinoline-4-carboxylic acid indan-1-ylamide], the figure is more than 7.00; as for `CCn1cc(C(=O)NC2CCc3ccc(OC)cc32)c2cc(OC)c(OC)cc2c1=O` (stereo not drawn) [Example 176, 2-Ethyl-6,7-dimethoxy-N-(6-methoxy-2,3-dihydro-1H-inden-1-yl)-1-oxo-1,2-dihydroisoquinoline-4-carboxamide], 6.30 to 6.70.
As for `CCC(CC)n1cc(C(=O)NC2CCc3ccc(C)cc32)c2cc(OC)c(OC)cc2c1=O` (stereo not drawn) [Example 260, 6,7-Dimethoxy-N-(6-methyl-2,3-dihydro-1H-inden-1-yl)-1-oxo-2-(pentan-3-yl)-1,2-dihydroisoquinoline-4-carboxamide], the figure is 6.70 to 7.00; as for `CCn1cc(C(=O)NC2CCc3cc(C)ccc32)c2cc(OC)c(OC)cc2c1=O` (stereo not drawn) [Example 175, 2-Ethyl-6,7-dimethoxy-N-(5-methyl-2,3-dihydro-1H-inden-1-yl)-1-oxo-1,2-dihydroisoquinoline-4-carboxamide], 6.30 to 6.70; as for `CCn1cc(C(=O)NC2CCc3ccc(C)cc32)c2cc(OC)c(OC)cc2c1=O` (stereo not drawn) [Example 167, 2-Ethyl-6,7-dimethoxy-N-(6-methyl-2,3-dihydro-1H-inden-1-yl)-1-oxo-1,2-dihydroisoquinoline-4-carboxamide], 6.30 to 6.70.
As for `CCn1cc(C(=O)NCc2ccccc2C)c2cc(OC)c(OC)cc2c1=O` [Example 154, 2-Ethyl-6,7-dimethoxy-N-(2-methylbenzyl)-1-oxo-1,2-dihydroisoquinoline-4-carboxamide], the figure is 6.70 to 7.00; as for `CCn1cc(C(=O)Nc2ccccc2)c2cc(OC)c(OC)cc2c1=O` [Example 151, 2-Ethyl-6,7-dimethoxy-1-oxo-N-phenyl-1,2-dihydroisoquinoline-4-carboxamide], 6.30 to 6.70; as for `CCn1cc(C(=O)Nc2ccncc2)c2cc(OC)c(OC)cc2c1=O` [Example 164, 2-Ethyl-6,7-dimethoxy-1-oxo-N-(pyridin-4-yl)-1,2-dihydroisoquinoline-4-carboxamide], 6.30 to 6.70.
As to `CCn1cc(C(=O)NCc2ccc(C)cc2OCC2CC2)c2cc(OC)c(OC)cc2c1=O` [Example 290, N-[[2-(Cyclopropylmethoxy)-4-methyl-phenyl]methyl]-2-ethyl-6,7-dimethoxy-1-oxo-isoquinoline-4-carboxamide], the pIC50 was 6.30 to 6.70.
The same measure for `CCCCNC(=O)c1cn(CCc2ccc3ccccc3n2)c(=O)c2cc(OC)c(OC)cc12` [Example 322, N-Butyl-6,7-dimethoxy-1-oxo-2-[2-(2-quinolyl)ethyl]isoquinoline-4-carboxamide; 2,2,2-trifluoroacetic acid]: more than 7.00; for `CCn1cc(C(=O)NCc2ccc(C)cc2OC(C)(C)C)c2cc(OC)c(OC)cc2c1=O` [Example 276, N-[(2-tert-Butoxy-4-methyl-phenyl)methyl]-2-ethyl-6,7-dimethoxy-1-oxo-isoquinoline-4-carboxamide]: 6.30 to 6.70; for `CCn1cc(C(=O)Nc2ccc(F)cc2)c2cc(OC)c(OC)cc2c1=O` [Example 156, 2-Ethyl-N-(4-fluorophenyl)-6,7-dimethoxy-1-oxo-1,2-dihydroisoquinoline-4-carboxamide]: 6.30 to 6.70.
For the compound `CCn1cc(C(=O)NCc2ccccn2)c2cc(OC)c(OC)cc2c1=O` [Example 149, 2-Ethyl-6,7-dimethoxy-1-oxo-N-(pyridin-2-ylmethyl)-1,2-dihydroisoquinoline-4-carboxamide], the pIC50 is 6.30 to 6.70.
The same measure for `CCC(CC)n1cc(C(=O)NC2CSc3ccccc32)c2cc(OC)c(OC)cc2c1=O` (stereo not drawn) [Example 216, 2-(1-Ethyl-propyl)-6,7-dimethoxy-1-oxo-1,2-dihydro-isoquinoline-4-carboxylic acid (2,3-dihydro-benzo[b]thiophen-3-yl)-amide]: more than 7.00; for `CCC(CC)n1cc(C(=O)NC2CCc3c(Cl)cccc32)c2cc(OC)c(OC)cc2c1=O` (stereo not drawn) [Example 265, N-(4-Chloro-2,3-dihydro-1H-inden-1-yl)-6,7-dimethoxy-1-oxo-2-(pentan-3-yl)-1,2-dihydroisoquinoline-4-carboxamide]: 6.30 to 6.70; for `CCn1cc(C(=O)NC2CCc3cc(F)ccc32)c2cc(OC)c(OC)cc2c1=O` (stereo not drawn) [Example 177, 2-Ethyl-N-(5-fluoro-2,3-dihydro-1H-inden-1-yl)-6,7-dimethoxy-1-oxo-1,2-dihydroisoquinoline-4-carboxamide]: 6.30 to 6.70.
For `CCn1cc(C(=O)NCc2ccccc2F)c2cc(OC)c(OC)cc2c1=O` [Example 30, 2-Ethyl-6,7-dimethoxy-1-oxo-1,2-dihydro-isoquinoline-4-carboxylic acid 2-fluoro-benzylamide], the pIC50 is 6.30 to 6.70.
Take `CCn1cc(C(=O)NCc2cccc(C)c2)c2cc(OC)c(OC)cc2c1=O` [Example 153]: the pIC50 is 6.70 to 7.00.
As for `CCn1cc(C(=O)NC(C)CC(C)C)c2cc(OC)c(OC)cc2c1=O` (stereo not drawn) [Example 23, 2-Ethyl-6,7-dimethoxy-1-oxo-1,2-dihydro-isoquinoline-4-carboxylic acid (1,3-dimethyl-butyl)-amide], the figure is 6.30 to 6.70; as for `CCC(CC)n1cc(C(=O)NCc2ccc(C#N)o2)c2cc(OC)c(OC)cc2c1=O` [Example 264, N-((5-Cyanofuran-2-yl)methyl)-6,7-dimethoxy-1-oxo-2-(pentan-3-yl)-1,2-dihydroisoquinoline-4-carboxamide], 6.30 to 6.70; as for `CCC(CC)n1nc(C(=O)NC2CCc3ncccc32)c2cc(OC)c(OC)cc2c1=O` (stereo not drawn) [Example 233, 3-(1-Ethyl-propyl)-6,7-dimethoxy-4-oxo-3,4-dihydro-phthalazine-1-carboxylic acid (6,7-dihydro-5H-[1]pyrindin-5-yl)-amide], 6.70 to 7.00.
As for `CCn1cc(C(=O)NCc2ccccc2)c2cc(OC)c(OC)cc2c1=O` [Example 26, 2-Ethyl-6,7-dimethoxy-1-oxo-1,2-dihydro-isoquinoline-4-carboxylic acid benzylamide], the figure is 6.70 to 7.00; as for `CCn1cc(C(=O)NCc2ccc(OC)cc2)c2cc(OC)c(OC)cc2c1=O` [Example 152, 2-Ethyl-6,7-dimethoxy-N-(4-methoxybenzyl)-1-oxo-1,2-dihydroisoquinoline-4-carboxamide], 6.30 to 6.70.
Consider `CCn1cc(C(=O)NCc2ccccc2CN2CCOCC2)c2cc(OC)c(OC)cc2c1=O` [Example 168, 2-Ethyl-6,7-dimethoxy-N-(2-(morpholinomethyl)benzyl)-1-oxo-1,2-dihydroiso-quinoline-4-carboxamide], for which the pIC50 was 6.30 to 6.70.
As to `CCn1cc(C(=O)NCc2cccc(Cl)c2)c2cc(OC)c(OC)cc2c1=O` [Example 142, N-(3-Chlorobenzyl)-2-ethyl-6,7-dimethoxy-1-oxo-1,2-dihydroisoquinoline-4-carboxamide], the pIC50 is 6.70 to 7.00.
For `CCn1cc(C(=O)NC2CCc3sccc32)c2cnc(OC)cc2c1=O` (stereo not drawn) [Example 230, 2-Ethyl-7-methoxy-1-oxo-1,2-dihydro-[2,6]naphthyridine-4-carboxylic acid (5,6-dihydro-4H-cyclopenta[b]thiophen-4-yl)-amide], the pIC50 is 6.70 to 7.00.
The same measure for `CCc1ccc(CNC(=O)c2cn(C(CC)CC)c(=O)c3cc(OC)c(OC)cc23)s1` [Example 266, N-((5-Ethylthiophen-2-yl)methyl)-6,7-dimethoxy-1-oxo-2-(pentan-3-yl)-1,2-dihydroisoquinoline-4-carboxamide]: 6.30 to 6.70; for `CCC(CC)n1cc(C(=O)NCc2ncc(C)o2)c2cc(OC)c(OC)cc2c1=O` [Example 259, 6,7-Dimethoxy-N-((5-methyloxazol-2-yl)methyl)-1-oxo-2-(pentan-3-yl)-1,2-dihydroisoquinoline-4-carboxamide]: 6.30 to 6.70; for `CCn1cc(C(=O)NCC2CCCCC2)c2cc(OC)c(OC)cc2c1=O` [Example 28, 2-Ethyl-6,7-dimethoxy-1-oxo-1,2-dihydro-isoquinoline-4-carboxylic acid cyclohexylmethyl-amide]: 6.30 to 6.70.
The same measure for `CCC(CC)n1cc(C(=O)NCc2ccc(C)cc2)c2cc(OC)c(OC)cc2c1=O` [Example 262, 6,7-Dimethoxy-N-(4-methylbenzyl)-1-oxo-2-(pentan-3-yl)-1,2-dihydroisoquinoline-4-carboxamide]: 6.70 to 7.00; for `CCn1cc(C(=O)NC(C)c2ccccc2)c2cc(OC)c(OC)cc2c1=O` (stereo not drawn) [Example 29, 2-Ethyl-6,7-dimethoxy-1-oxo-1,2-dihydro-isoquinoline-4-carboxylic acid (1-phenyl-ethyl)-amide]: 6.30 to 6.70.
`CCC(C)Oc1cc(C)ccc1CNC(=O)c1cn(CC)c(=O)c2cc(OC)c(OC)cc12` (stereo not drawn) [Example 298, N-(2-sec-Butoxy-4-methylbenzyl)-2-ethyl-6,7-dimethoxy-1-oxo-1,2-dihydroisoquinoline-4-carboxamide]: the pIC50 was 6.30 to 6.70.

A word on the pIC50: it is the negative decadic logarithm of the IC50, by convention in mol/L.
